Measured values reported in US11498903B2 (BRISTOL-MYERS SQUIBB COMPANY, priority 2017, dated 2022).
Like-named read-outs stand apart in the source and are kept apart here.

Target: T1, human APJ receptor (Homo sapiens, UniProt P35414)
T1 construct: expressed in transfected cells
T1 sequence (P35414 1-380): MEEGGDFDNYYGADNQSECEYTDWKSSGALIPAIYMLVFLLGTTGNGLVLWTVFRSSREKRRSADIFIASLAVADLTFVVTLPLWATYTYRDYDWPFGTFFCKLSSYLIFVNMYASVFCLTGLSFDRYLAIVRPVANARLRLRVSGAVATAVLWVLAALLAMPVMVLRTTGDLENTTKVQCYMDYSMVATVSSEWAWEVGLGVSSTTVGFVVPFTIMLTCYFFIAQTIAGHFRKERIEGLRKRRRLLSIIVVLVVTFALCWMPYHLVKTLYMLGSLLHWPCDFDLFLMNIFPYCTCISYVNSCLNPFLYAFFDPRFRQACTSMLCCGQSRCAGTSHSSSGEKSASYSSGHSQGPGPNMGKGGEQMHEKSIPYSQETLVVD
Assay: Intracellular cAMP accumulation assay (APJ hcAMP, HTRF)
Format: cell-based
In short: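 Inhibition of 2 μM forskolin-driven cAMP ([…] present) measured by HTRF in 5,000 HEK293 cells/well stably expressing human APJ, 30 min, room temperature. EC50 came from a variable-slope sigmoidal fit; Ymax was relative to (Pyr1)apelin-13 set at 100%.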

[1] = Table 1, HEK293 cells stably expressing human APJ receptor, inhibition of forskolin-mediated cAMP production, read-out: APJ hcAMP EC50
[2] = human APJ, cAMP, potency range class, read-out: APJ cAMP Human EC50
[3] = Table 2, HEK293 cells stably expressing human APJ receptor, read-out: APJ cAMP Human EC50

| EC50 [1] [nM] | EC50 [2] [nM] | EC50 (Table 3, HEK293 cells stably expressing human APJ receptor, read-out: APJ cAMP Human EC50) [nM] | EC50 [3] [nM] | SMILES |
| --- | --- | --- | --- | --- |
| 10 to 100 | 10 to 100 | – | – | CCCC(NC(=O)c1ccc(-c2c(Cl)cccc2-c2nc3ccccc3[nH]2)c(C(=O)O)c1)c1ccccc1OC(F)(F)F (single isomer, unassigned) [Example 191] |
| 10 to 100 | 10 to 100 | – | – | CCCC(NC(=O)c1ccc(-c2c(Cl)cccc2-c2nc3ccccc3[nH]2)c(C(=O)O)c1)c1ccncc1 (single isomer, unassigned) [Example 192] |
| < 10 | < 10 | – | – | CCCC(NC(=O)c1ccc(-c2c(Cl)cccc2-c2nc3cc(OC)c(F)cc3[nH]2)c(C(=O)O)c1)C1CCCC1 (single isomer, unassigned) [Example 195] |
| < 10 | < 10 | – | – | CCC[C@H](NC(=O)c1ccc(-c2c(Cl)cccc2-c2nc3cc(OC)c(F)cc3[nH]2)c(C(=O)O)c1)c1ccccc1C(F)(F)F (single isomer, unassigned) [Example 196] |
| < 10 | < 10 | – | – | CCCC(NC(=O)c1ccc(-c2c(Cl)cccc2-c2nc3cc(OC)c(F)cc3[nH]2)c(C(=O)O)c1)c1ccc(Cl)cc1OC (single isomer, unassigned) [Example 197] |
| < 10 | < 10 | – | – | CCCC(NC(=O)c1ccc(-c2c(Cl)cccc2-c2nc3cc(OC)c(F)cc3[nH]2)c(C(=O)O)c1)C1CCCCC1 (single isomer, unassigned) [Example 198] |
| < 10 | < 10 | – | – | CCC[C@H](NC(=O)c1ccc(-c2c(Cl)cccc2-c2nc3cc(Cl)c(F)cc3[nH]2)c(C(=O)O)c1)c1ccncc1 (single isomer, unassigned) [Example 199] |
| < 10 | < 10 | – | – | CCC[C@H](NC(=O)c1ccc(-c2c(Cl)cccc2-c2nc3cc(Cl)c(F)cc3[nH]2)c(C(=O)O)c1)c1ccc(Cl)cc1OC (single isomer, unassigned) [Example 200] |
| < 10 | < 10 | – | – | CCCC(NC(=O)c1ccc(-c2c(Cl)cccc2-c2nc3cc(Cl)c(F)cc3[nH]2)c(C(=O)O)c1)c1c(C)cc(C)cc1C (single isomer, unassigned) [Example 201] |
| 101 to 500 | 101 to 500 | – | – | COC(=O)c1cc(C(=O)N[C@H](c2ccc(Cl)cc2)C2CC2)ccc1-c1c(Cl)cccc1-c1nc2cc(OC)c(F)cc2[nH]1 (single isomer, unassigned) [Example 204] |
| 10 to 100 | 10 to 100 | – | – | COc1cc2nc(-c3cccc(Cl)c3-c3ccc(C(=O)N[C@H](c4ccc(Cl)cc4)C4CC4)cc3CO)[nH]c2cc1F (single isomer, unassigned) [Example 205] |
| < 10 | < 10 | – | – | CCCC(NC(=O)c1ccc(-c2cc(Cl)ccc2-c2nc3ccccc3[nH]2)c(C(=O)O)c1)c1ccc(F)cc1 (single isomer, unassigned) [Example 209, 2′-(1H-1,3-benzodiazol-2-yl)-5′-chloro-4-{[1-(4-fluorophenyl)butyl]carbamoyl}-[1,1′-biphenyl]-2-carboxylic acid] |
| < 10 | < 10 | – | – | O=C(NC(c1ccccc1)C1CC1)c1ccc(-c2cc(Cl)ccc2-c2nc3ccccc3[nH]2)c(C(=O)O)c1 (single isomer, unassigned) [Example 211, 2′-(1H-1,3-benzodiazol-2-yl)-5′-chloro-4-{[cyclopropyl(phenyl)methyl]carbamoyl}-[1,1′-biphenyl]-2-carboxylic acid] |
| 101 to 500 | 101 to 500 | – | – | CCCC(NC(=O)c1ccc(-c2cc(Cl)ccc2-c2nc3ccccc3[nH]2)c(C(=O)O)c1)c1ccc(F)cc1 (single isomer, unassigned) [Example 215, 2′-(1H-1,3-benzodiazol-2-yl)-5′-chloro-4-{[1-(4-fluorophenyl)butyl]carbamoyl}-[1,1′-biphenyl]-2-carboxylic acid] |
| < 10 | < 10 | – | – | O=C(NC(c1ccccc1)C1CC1)c1ccc(-c2c(Cl)cccc2-c2nc3ccccc3[nH]2)c(C(=O)O)c1 (single isomer, unassigned) [Example 220] |
| < 10 | < 10 | – | – | CCC[C@H](NC(=O)c1ccc(-c2c(Cl)cccc2-c2nc3ccccc3[nH]2)c(C(=O)O)c1)c1ccccc1OC (single isomer, unassigned) [Example 221] |
| < 10 | < 10 | – | – | O=C(NC(c1ccc(Cl)cc1)C1CC1)c1ccc(-c2c(Cl)cccc2-c2nc3ccccc3[nH]2)c(C(=O)O)c1 (single isomer, unassigned) [Example 224] |

| EC50 [1] [nM] | EC50 [2] [nM] | EC50 (Table 3, HEK293 cells stably expressing human APJ receptor, read-out: APJ cAMP Human EC50) [nM] | EC50 [3] [nM] | SMILES |
| --- | --- | --- | --- | --- |
| < 10 | < 10 | – | – | O=C(NC(C1CCCCC1)C1CC1)c1ccc(-c2c(Cl)cccc2-c2nc3ccccc3[nH]2)c(C(=O)O)c1 (single isomer, unassigned) [Example 227] |
| < 10 | < 10 | – | – | CCCC(NC(=O)c1ccc(-c2c(Cl)cccc2-c2nc3ccccc3[nH]2)c(C(=O)O)c1)c1ccc(F)cc1 (single isomer, unassigned) [Example 228] |
| 10 to 100 | 10 to 100 | – | – | O=C(N[C@H](c1ccccc1)C1CC1)c1ccc(-c2c(Cl)cccc2-c2nc3ccccc3[nH]2)c(C(=O)O)c1 (single isomer, unassigned) [Example 229] |
| < 10 | < 10 | – | – | CCC[C@@H](NC(=O)c1ccc(-c2c(Cl)cccc2-c2nc3cc(OC)ccc3[nH]2)c(C(=O)O)c1)C1CCCCC1 (single isomer, unassigned) [Example 231] |
| < 10 | < 10 | – | – | CCC[C@H](NC(=O)c1ccc(-c2c(Cl)cccc2-c2nc3cc(OC)c(F)cc3[nH]2)c(C(=O)O)c1)c1ccc(F)cc1 (single isomer, unassigned) [Example 233] |
| < 10 | < 10 | – | – | COc1cc2nc(-c3cccc(Cl)c3-c3ccc(C(=O)N[C@H](c4ccccc4)C4CC4)cc3C(=O)O)[nH]c2cc1F (single isomer, unassigned) [Example 234] |
| < 10 | < 10 | – | – | COc1cc2nc(-c3cccc(Cl)c3-c3ccc(C(=O)NC(C4CCCCC4)C4CC4)cc3C(=O)O)[nH]c2cc1F (single isomer, unassigned) [Example 235] |
| < 10 | < 10 | – | – | CCC[C@H](NC(=O)c1ccc(-c2c(Cl)cccc2-c2nc3cc(OC)c(F)cc3[nH]2)c(C(=O)O)c1)c1ccc(Cl)cc1 (single isomer, unassigned) [Example 236] |
| < 10 | < 10 | – | – | COc1cc2nc(-c3cccc(Cl)c3-c3ccc(C(=O)N[C@H](c4ccc(Cl)cc4)C4CC4)cc3C(=O)O)[nH]c2cc1F (single isomer, unassigned) [Example 237] |
| < 10 | < 10 | – | – | CCC[C@H](NC(=O)c1ccc(-c2c(Cl)cccc2-c2nc3cc(OC)c(F)cc3[nH]2)c(C(=O)O)c1)c1ccccc1OC (single isomer, unassigned) [Example 238] |
| < 10 | < 10 | – | – | CCC[C@H](NC(=O)c1ccc(-c2c(Cl)cccc2-c2nc3cc(F)c(Cl)cc3[nH]2)c(C(=O)O)c1)c1ccc(Cl)cc1 (single isomer, unassigned) [Example 239] |
| < 10 | < 10 | – | – | O=C(N[C@H](c1ccc(Cl)cc1)C1CC1)c1ccc(-c2c(Cl)cccc2-c2nc3cc(F)c(Cl)cc3[nH]2)c(C(=O)O)c1 (single isomer, unassigned) [Example 240] |
| – | – | 10 to 100 | – | CCC[C@H](NC(=O)c1ccc(-c2c(Cl)cccc2-c2nc3cc(OC)c(F)cc3[nH]2)c(CO)c1)c1ccccc1 (stereo in doubt) [Example 131, (S)-2′-chloro-6′-(6-fluoro-5-methoxy-1H-1,3-benzodiazol-2-yl)-2-(hydroxymethyl)-N-(1-phenylbutyl)-[1,1′-biphenyl]-4-carboxamide] |
| < 10 | – | – | < 10 | CCC[C@@H](NC(=O)c1ccc(-c2cc(Cl)ccc2-c2nc3cc(OC)ccc3[nH]2)c(C(=O)O)c1)c1ccccc1 [Example 1, (R)-5′-Chloro-2′-(5-methoxy-1H-benzo[d]imidazol-2-yl)-4-((1-phenylbutyl)carbamoyl)-[1,1′-biphenyl]-2-carboxylic acid] |
| < 10 | – | – | < 10 | CCC[C@@H](NC(=O)c1ccc(-c2cc(Cl)ccc2-c2nc3ccccc3[nH]2)c(C(=O)O)c1)c1ccccc1 [Example 2, (R)-2′-(1H-Benzo[d]imidazol-2-yl)-5′-chloro-4-((1-phenylbutyl)carbamoyl)-[1,1′-biphenyl]-2-carboxylic acid] |
| < 10 | – | – | < 10 | CCC[C@@H](NC(=O)c1ccc(-c2cc(Cl)ccc2-c2nc3cc(O)ccc3[nH]2)c(C(=O)O)c1)c1ccccc1 [Example 3, (R)-5′-Chloro-2′-(5-hydroxy-1H-benzo[d]imidazol-2-yl)-4-((1-phenylbutyl)carbamoyl)-[1,1′-biphenyl]-2-carboxylic acid] |
| < 10 | – | – | < 10 | CCC[C@@H](NC(=O)c1ccc(-c2cc(Cl)ccc2-c2ncc(-c3ccccc3)[nH]2)c(C(=O)O)c1)c1ccccc1 [Example 4, (R)-5′-Chloro-2′-(4-phenyl-1H-imidazol-2-yl)-4-((1-phenylbutyl)carbamoyl)-[1,1′-biphenyl]-2-carboxylic acid] |
